In patent US20050271588A1, “Liposome targeting of matrix metalloproteinase inhibitors” (priority 2001, published 2005):
Values belong to the compound of their own block, whether it stands above or below them. Positions of bridges follow the written chain, without caps; N, C: chain ends. No end group written: not given here.

Key:
[1] = system: HT1080 cells; test: Blocking of CTT-liposome uptake by antibodies and proteinase inhibitors; assay type: cell-based, human; settings: TIMP-2 10 μg/ml, Marimastat 50 μM, EDTA 500 μM, aprotinin 1 μg/ml
Protocol: We further investigated if cell surface-bound gelatinases were the receptors for the CTT-containing liposomes. Cells were washed to remove soluble forms of gelatinases, and then preincubated for 30 min with MMP inhibitors or specific antibodies before the addition of liposomes.
(§1) We also preincubated cells with phorbol ester (TPA) (50 nM). Preincubation times varied from 15 to 75 min. Treatment of cells by phorbol ester (TPA) increases both expression and secretion of MMP-9 (Toth et al., 1997). […] M-17 inhibits the binding of MMP-9 to the substrate and this inhibition is expected to be concentration dependent. It is not known if rabbit polyclonal antibody blocks human MMP-2 (Murphy et al., 1994). Final concentrations of the indicated peptide, Adriamycin, antibodies and liposomes were 85 μM, 0.2 mM, 20 μg/ml, and 0.4 μM, respectively.

[2] = system: U937 cells; test: Cell killing by Adriamycin-containing liposomes, EthD-1 viability assay; assay type: cell-based; settings: U937, 24 h, peptide 85 μM, Adriamycin 0.4 μM
Protocol: Viability assays. Peptide-liposome complexes with the encapsulated adriamycin were made as described above, yielding final concentrations of peptide, lipid, and adriamycin of 85 μM, 0.2 mM, and 0.4 μM, respectively, and were subsequently added to a ten μl (10^5 cells) sample of U937 cells. For the detection of dead cells EthD-1 was used. This fluorophore is membrane-impermeable and emits fluorescence only when bound to DNA (Papadopoulos et al., 1994). Accordingly, EthD-1 readily enters dead cells and binds to their DNA, its fluorescence intensity correlating to the amount of dead cells. EthD-1 emission was measured using microplate reader with excitation at 495 nm and emission at 635 nm. Student's t-test was used to assess statistical significance.

[3] = system: U937 cells; test: Uptake of liposome-encapsulated rhodamine B by U937 cells; assay type: cell-based; settings: U937, fluorescence plate-reader
Protocol: In another series of experiments the water-soluble fluorescent marker rhodamine B was encapsulated into liposomes and its uptake by cells was measured. Samples for rhodamine B uptake were prepared by mixing 60 μl of POPC/POPE (80/20, mol/mol, one mM) liposomes containing 10 μM rhodamine B to 300 μl of DMEM medium supplemented with 10% fetal bovine serum, Glutamax I, penicillin 100 U/ml and streptomycin 0.1 mg/ml. Peptides were then added to obtain a final concentration of […]. Ten μl (10^5 cells) of medium containing the indicated cells were combined with the LUVs. After an incubation for 15 min at 37° C. or +4° C. liposomes not bound to the cells were removed from 96-well plates by rinsing three times with cold PBS. The +4° C. temperature served as a control for non-endocytotic liposome uptake by cells (Oess and Hildt, 2000). The relative amount of rhodamine B associated with the cells was determined using microplate reader with excitation at 535 nm and emission at 595 nm.
as §1, with “1997). Results are presented as RFI=I/I0, where RFI is relative fluorescence intensity, I0 is the emission intensity for the control, 2 μM rhodamine B in LUVs without the peptides, and I is the rhodamine emission for the peptide-liposome complexes taken up by the cells.” for “1997).”
Cell cultures and fluorescence microscopy. U937 (ECACC 85011440), HT 1080 (ECACC 85111505), and CHO (ECACC 85050302) cells were cultured in RPMI or DMEM medium supplemented with 10% fetal bovine serum, Glutamax I, penicillin (100 U/ml), and streptomycin (0.1 mg/ml). Uptake of rhodamine B containing liposomes by the cultured cells was verified by fluorescence microscopy. An inverted fluorescence microscope (Zeiss IM 35) equipped with Nikon extra long working distance objectives (20×) and (40×) were used. Samples were prepared as described for the rhodamine uptake assay, with slight modifications. Accordingly, instead of washing, U937, HT 1080, and CHO cells with the rhodamine-containing liposomes and in cell culture medium were transferred into Nunclon 48 plate wells. Excitation and emission wavelengths were selected by suitable bandpass filters (Melles-Griot) transmitting in the range 535 nm and >600 nm, respectively. Fluorescence images were viewed with a Peltier-cooled digital camera (C4742-95, Hamamatsu, Japan) connected to a computer and operated by software (Hipic 5.0) provided by the instrument manufacturer.

[4] = biological target: T1, MMP-9 (Homo sapiens, UniProt P14780); test: Gelatinase assay with fluorogenic peptide substrate; assay type: biochemical; settings: 100 μM EDTA, MMP-9 5 nM
T1 construct: made in house
Protocol: The activity of MMP-9 was measured also using the fluorogenic peptide substrate MCA-Pro-Leu-Ala-Nva-Dpa-Ala-Arg (Calbiochem, San Diego, Calif., USA). More specifically, 50 ng of MMP-9 was preincubated in PBS for 30 min at RT in the absence or presence of CTT or its liposome complex. Subsequently, the fluorogenic substrate was added to a final concentration of 0.1 mM and the incubation was continued at 37° C. for 15 min, whereafter fluorescence intensities were measured with exitation at 340 nm and emission at 390 nm in a microtiter plate reader.

[5] = system: cells; test: Effect of phorbol ester (TPA) preincubation on CTT-liposome uptake; assay type: cell-based; settings: TPA 50 nM
Protocol: as §1, with “1997). Results are presented as RFI=I/I0, where RFI is relative fluorescence intensity, I0 is the emission intensity for the control, 2 μM rhodamine B in LUVs without the peptides, and I is the rhodamine emission for the peptide-liposome complexes taken up by the cells.” for “1997).”

[6] = biological target: T2, MMP-2 (Homo sapiens, UniProt P08253); test: Casein zymography, inhibition of MMP-2; assay type: biochemical; settings: 85 μM peptide
T2 construct: purchased Boehringer Mannheim GmbH (Germany)
T2 sequence (P08253 110-660): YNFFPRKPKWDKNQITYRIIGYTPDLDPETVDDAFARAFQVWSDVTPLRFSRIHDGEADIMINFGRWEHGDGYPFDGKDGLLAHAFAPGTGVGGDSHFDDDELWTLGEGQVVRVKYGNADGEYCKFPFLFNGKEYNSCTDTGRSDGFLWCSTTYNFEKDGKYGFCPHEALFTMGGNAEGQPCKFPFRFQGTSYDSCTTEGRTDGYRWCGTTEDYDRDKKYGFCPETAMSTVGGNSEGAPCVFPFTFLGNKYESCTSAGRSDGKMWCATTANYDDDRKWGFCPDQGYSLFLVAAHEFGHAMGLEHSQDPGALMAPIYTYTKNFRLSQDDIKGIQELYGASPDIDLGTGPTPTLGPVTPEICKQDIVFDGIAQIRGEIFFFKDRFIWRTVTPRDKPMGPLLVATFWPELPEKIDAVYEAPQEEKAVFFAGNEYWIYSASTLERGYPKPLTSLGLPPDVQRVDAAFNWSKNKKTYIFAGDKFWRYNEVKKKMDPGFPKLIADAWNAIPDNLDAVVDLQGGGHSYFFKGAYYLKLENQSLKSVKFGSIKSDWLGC
Protocol: Assay for gelatinases. Inhibition of MMP-9 and MMP-2 by the different synthetic peptides was measured using casein zymography (Halinen et al., 1996). MMP-9 was purified as described (Sorsa et al., 1997). Subsequently, MMP-2 (2.5 μg) or MMP-9 (2.5 μg) was run on a 10% SDS-PAGE containing two mg/ml casein. The gel was first washed in Triton X-100 containing buffer to remove SDS, and it was cut into five slices which were immersed into peptide (CTT, CLP, CWL or STT) containing solutions (85 μM). After incubation for 48 hrs at 37° C., the gels were stained with Coomassie blue, scanned, and the digested areas quantitated using image analysis (Global Lab Image 3.2, Data Translation Inc. and Acuity Imaging Inc., Marlboro, Mass., USA).

[7] = Penetration of peptides into lipid monolayers (surface pressure); assay type: physicochemical; settings: eggPC monolayer, peptide 200 μM
Protocol: Interaction of peptides with lipid monolayers. Penetration of peptides into mono-molecular lipid films was measured using magnetically stirred circular wells (subphase volume 400 μl). Surface pressure (π) was monitored with a Wilhelmy wire attached to a microbalance (μ TroughS, Kibron Inc., Helsinki, Finland) connected to a Pentium PC. Lipids were spread on the air-buffer (PBS, pH 7) interface in chloroform (approx. one mg/ml) to different initial surface pressures (π0) and were allowed to equilibrate for 15 min before the addition of the indicated peptides (4 μ1,10 mg/ml in H2O and CWL in DMSO) into the subphase. The increment in π from the initial surface pressures (π0) after the addition of peptide was complete in approximately 20 min and the difference between π0 and the value observed after binding of the peptide into the film was taken as Δπ. All measurements were performed at ambient temperature (˜+24° C.). The data are represented as Δπ vs. […] (Brockman, 1999).

[8] = Assay for lipid mixing (liposome fusion, NBD-PE/DPPRho); assay type: physicochemical; settings: within 15 min
Protocol: The extent of exposure of Trp to the aqueous phase was studied using I— as a collisional quencher (Lakowicz, 1999). The extent of quenching was calculated by using the equation: F0/F=1+k[Q]=1+kqτ0[Q] where F0 and F are Trp fluorescence intensities at 345 nm in the absence and presence of the quencher, Q, τ0 is Trp fluorescence lifetime in the absence of the quencher, k is the Stern-Volmer constant (obtained from the slope of the linear fit of the data). Fluorescence of Trp in CTT (5 μM) and its quenching were measured in the absence and presence of POPC/POPE (80:20, mol/mol) LUVs (final lipid concentration of 0.5 mM). The results were corrected for background caused by PBS and liposomes. Assay for lipid mixing. The ability of the CTT, CLP, STT, and CWL peptides to induce liposome fusion was assessed by measuring lipid mixing, as described earlier (Struck et al., 1981). In brief, NBD-PE (X=0.01) and DPPRho (X=0.01) were incorporated into liposomes (POPC/POPE, 78/20, mol/mol). Due to the spectral overlap of NBD-PE (donor) emission and DPPRho (acceptor) absorption resonance energy transfer between these dyes is highly efficient. As liposomes containing NBD-PE and DPPRho are mixed with non-labeled liposomes, fusion is observed as an increase in the emission intensity of NBD-PE due to the dilution of probes. Excitation and emission wavelengths for NBD-PE at 430 nm and 530 nm were used. All fluorescence measurements were done at 37° C.

T1 sequence (P14780 94-707): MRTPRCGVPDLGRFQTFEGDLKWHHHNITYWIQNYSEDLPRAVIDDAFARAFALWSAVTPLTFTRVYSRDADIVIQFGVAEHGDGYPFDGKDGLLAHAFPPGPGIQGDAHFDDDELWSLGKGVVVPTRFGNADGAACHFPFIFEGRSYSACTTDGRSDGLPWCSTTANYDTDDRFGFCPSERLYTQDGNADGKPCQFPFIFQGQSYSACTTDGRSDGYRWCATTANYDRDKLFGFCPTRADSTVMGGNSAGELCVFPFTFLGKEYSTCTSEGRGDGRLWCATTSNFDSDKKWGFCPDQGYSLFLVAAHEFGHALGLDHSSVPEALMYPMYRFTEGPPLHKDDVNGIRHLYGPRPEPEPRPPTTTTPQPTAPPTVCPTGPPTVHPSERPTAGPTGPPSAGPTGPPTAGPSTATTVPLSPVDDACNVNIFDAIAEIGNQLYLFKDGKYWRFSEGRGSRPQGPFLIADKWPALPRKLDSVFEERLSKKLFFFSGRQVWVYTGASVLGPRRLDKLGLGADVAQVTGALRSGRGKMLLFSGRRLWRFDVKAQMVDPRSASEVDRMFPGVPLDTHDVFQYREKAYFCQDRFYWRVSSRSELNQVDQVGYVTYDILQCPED

Compound: CNC(=O)[C@@H](NC(=O)[C@H](CC(C)C)[C@H](O)C(=O)NO)C(C)(C)C [Marimastat]
- Inhibition of liposome transfer into cells [1]: approx. 50%

Compound: Cys-Trp-Leu-Thr-Phe-Thr-His-Gly-Thr-Cys (CWLTFTHGTC; disulfide 1-10) [scrambled cyclic peptide, reference compound]
- Increase in killing of cells vs Adriamycin liposomes without peptide [2]: not
- Enhancement of uptake of liposome-encapsulated rhodamine vs liposomes lacking peptide [3]: inefficient

- Inhibition of MMP-9 [4]: Complete inhibition
Compound: O=C(O)CN(CCN(CC(=O)O)CC(=O)O)CC(=O)O [EDTA, reference compound]

Compound: CCCCCCCCCCCCCC(=O)O[C@@H]1[C@@H](C)[C@@]2(O)[C@@H](C=C(CO)C[C@]3(O)C(=O)C(C)=C[C@@H]23)[C@H]2C(C)(C)[C@]12OC(C)=O [TPA]
- Effect on uptake of CTT-liposomes ([5]; prolonged incubation (75 min)): inhibited
- Effect on uptake of CTT-liposomes ([5]; short exposure time (15 min)): increased

- Inhibition of MMP-2 activity [6]: approx. 30%
Compound: STTHWGFTLS
- Increase in killing of cells vs Adriamycin liposomes without peptide [2]: 1.7 fold
- Initial monolayer packing pressure above which membrane penetration was abolished [7]: 31 mN/m
- Enhancement of uptake of liposome-encapsulated rhodamine vs liposomes lacking peptide [3]: Only minor effect
- Lipid mixing / vesicle fusion (NBD-PE emission) [8]: lack of lipid mixing

Compound: aprotinin
- Inhibition of liposome transfer into cells [1]: no significant inhibitory effect

Compound: CLPGHWGFPSC (cysteine pairing not given here) [CTT homolog, part of EGF-7 domain in human laminin β-1 chain]
- Increase in killing of cells vs Adriamycin liposomes without peptide [2]: 1.3 fold
- Initial monolayer packing pressure above which membrane penetration was abolished [7]: 33 mN/m
- Enhancement of uptake of liposome-encapsulated rhodamine vs liposomes lacking peptide [3]: Only minor effect
- Lipid mixing / vesicle fusion (NBD-PE emission) [8]: lack of lipid mixing
